Measurements as given in patent US20100137313A1 (ASTRAZENECA AB, priority 2008, published 2010).

Molecular target: S. pneumoniae Topoisomerase IV ATPase (ParE) (Streptococcus pneumoniae serotype 4, UniProt Q59961)
Experiment: S. pneumoniae Topoisomerase IV ATPase inhibition
Assay type: biochemical
Conditions: values marked * are an average of two or more data points, read-out: % Inh (13 μM) of S. pneumoniae Topoisomerase IV ATPase
Summary of the method: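 Phosphate release by ParE ATPase from S. pneumoniae read colorimetrically (malachite green, 650 nm), enzyme 1.25 nM, ATP 160 μM, salmon sperm DNA present, buffer 20 mM Tris pH 8.0 with 8 mM MgCl2. IC50 over 10 compound concentrations, EDTA (20 μM) and DMSO controls defining inhibition range.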

S. pneumoniae Topoisomerase IV ATPase (ParE), sequence (Q59961 whole entry): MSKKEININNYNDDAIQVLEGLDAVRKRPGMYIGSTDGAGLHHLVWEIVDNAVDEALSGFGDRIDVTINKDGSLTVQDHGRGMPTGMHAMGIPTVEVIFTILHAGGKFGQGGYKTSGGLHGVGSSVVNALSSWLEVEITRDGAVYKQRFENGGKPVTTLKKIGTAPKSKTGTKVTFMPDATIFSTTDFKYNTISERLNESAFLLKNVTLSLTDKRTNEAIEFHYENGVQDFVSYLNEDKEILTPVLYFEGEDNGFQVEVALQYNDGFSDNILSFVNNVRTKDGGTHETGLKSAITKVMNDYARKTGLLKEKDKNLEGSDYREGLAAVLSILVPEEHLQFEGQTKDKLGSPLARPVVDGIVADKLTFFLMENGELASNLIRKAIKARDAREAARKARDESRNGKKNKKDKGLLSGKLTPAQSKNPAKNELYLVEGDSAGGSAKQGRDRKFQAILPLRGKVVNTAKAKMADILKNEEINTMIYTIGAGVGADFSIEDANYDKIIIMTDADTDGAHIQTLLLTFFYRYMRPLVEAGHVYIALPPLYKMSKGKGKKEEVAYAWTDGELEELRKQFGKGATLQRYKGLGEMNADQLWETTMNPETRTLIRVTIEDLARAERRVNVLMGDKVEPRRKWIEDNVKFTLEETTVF

| Compound | inhibition at 13 µM |
| --- | --- |
| O=C(O)c1cncc(-c2cnc(Nc3ccc(F)c(C(F)(F)F)c3)nc2N2CCOCC2)c1 [Example 437] | 75% |
| Cc1cc(C(F)(F)F)nn1-c1nc(Nc2cccc(F)c2)ncc1-c1cccc(/C=C/C(=O)O)c1 [Example 622, (2E)-3-(3-{2-[(3-fluorophenyl)amino]-4-[5-methyl-3-(trifluoromethyl)-1H-pyrazol-1-yl]pyrimidin-5-yl}phenyl)prop-2-enoic acid] | 98% |
| COc1cc(Nc2ncc(-c3cnc(OC)c(C(=O)NS(=O)(=O)c4c(C)noc4C)c3)c(-n3nc(C(F)(F)F)cc3C)n2)cc(OC)c1 [Example 836, 5-{2-[(3,5-dimethoxyphenyl)amino]-4-[5-methyl-3-(trifluoromethyl)-1H-pyrazol-1-yl]pyrimidin-5-yl}-N-[(3,5-dimethyl-1,2-oxazol-4-yl)sulfonyl]-2-methoxypyridine-3-carboxamide] | 94% |
| Fc1ccc(Nc2ncc(-c3cncnc3)c(-n3nnc4ncccc43)n2)cc1Cl [Example 88, N-(3-chloro-4-fluorophenyl)-4-(1H-[1,2,3]triazolo[4,5-b]pyridin-1-yl)-5,5′-bipyrimidin-2-amine] | 102% |
| Fc1ccc(Nc2ncc(-c3cncnc3)c(NCc3ccncc3)n2)cc1Cl [Example 40, N^2-(3-chloro-4-fluorophenyl)-N^4-(pyridin-4-ylmethyl)-5-pyrimidin-5-ylpyrimidine-2,4-diamine] | 72.4% |
| CONC(=O)c1cncc(-c2cnc(Nc3ccc(F)c(Cl)c3)nc2-n2ccc(-c3ccsc3)n2)c1 [Example 548, 5-{2-[(3-chloro-4-fluorophenyl)amino]-4-[3-(thiophen-3-yl)-1H-pyrazol-1-yl]pyrimidin-5-yl}-N-methoxypyridine-3-carboxamide] | 95% |
| CC(=O)Nc1ccn(-c2nc(Nc3ccc(F)c(Cl)c3)ncc2-c2cncc(C(=O)O)c2)n1 [Example 534, 5-{4-[3-(acetylamino)-1H-pyrazol-1-yl]-2-[(3-chloro-4-fluorophenyl)amino]pyrimidin-5-yl}pyridine-3-carboxylic acid] | 49% |
| Cc1cc(C(F)(F)F)nn1-c1nc(Nc2cccc(S(C)(=O)=O)c2)ncc1-c1cncc(C(=O)O)c1 [Example 644, 5-(2-{[3-(methylsulfonyl)phenyl]amino}-4-[5-methyl-3-(trifluoromethyl)-1H-pyrazol-1-yl]pyrimidin-5-yl)pyridine-3-carboxylic acid] | 84% |
| Fc1ccc(Nc2ncc(-c3cncnc3)c(NCCc3c[nH]cn3)n2)cc1Cl [Example 471, N^2-(3-chloro-4-fluorophenyl)-N^4-[2-(1H-imidazol-4-yl)ethyl]-5,5′-bipyrimidine-2,4-diamine] | 84% |
| CS(=O)(=O)NC(=O)c1cccc(-c2cnc(Nc3ccc(F)c(Cl)c3)nc2-n2ccc(C(F)(F)F)n2)c1 [Example 1002, 3-(2-(3-Chloro-4-fluorophenylamino)-4-(3-(trifluoromethyl)-1H-pyrazol-1-yl)pyrimidin-5-yl)-N-(methylsulfonyl)benzamide] | 100% |
| CN(C)CCCNc1nc(Nc2cc(Cl)cc(Cl)c2)ncc1-c1cccc(/C=C/C(=O)O)c1 [Example 340, (E)-3-(3-(2-(3,5-dichlorophenylamino)-4-(3-(dimethylamino)propylamino)pyrimidin-5-yl)phenyl)acrylic acid] | 83.3% |
| COc1cc(Nc2ncc(-c3cncc(C(=O)NS(C)(=O)=O)c3)c(-n3ccc(C(F)(F)F)n3)n2)cc(OC)c1 [Example 686, 5-{2-[(3,5-dimethoxyphenyl)amino]-4-[3-(trifluoromethyl)-1H-pyrazol-1-yl]pyrimidin-5-yl}-N-(methylsulfonyl)pyridine-3-carboxamide] | 100% |
| Cc1nccn1-c1nc(Nc2ccc(F)c(Cl)c2)ncc1-c1cccc(/C=C/C(=O)O)c1 [Example 314, (2E)-3-(3-{2-[(3-chloro-4-fluorophenyl)amino]-4-(2-methyl-1H-imidazol-1-yl)pyrimidin-5-yl}phenyl)prop-2-enoic acid] | 83.4% |
| O=C(O)c1cc(-c2cnc(Nc3ccc(F)c(Cl)c3)nc2-n2ccc(C(F)(F)F)n2)cn(CCN2CCOCC2)c1=O [Example 1075, 5-(2-(3-Chloro-4-fluorophenylamino)-4-(3-(trifluoromethyl)-1H-pyrazol-1-yl)pyrimidin-5-yl)-1-(2-morpholinoethyl)-2-oxo-1,2-dihydropyridine-3-carboxylic acid] | 97% |
| CCOC(=O)c1cncc(-c2cnc(Nc3ccc(F)c(Cl)c3)nc2NCc2cncn2C)c1 [Example 145, ethyl 5-(2-(3-chloro-4-fluorophenylamino)-4-((1-methyl-1H-imidazol-5-yl)methylamino)pyrimidin-5-yl) nicotinate] | 77.4% |
| O=C(O)c1cncc(-c2cnc(Nc3ccc(F)c(Cl)c3)nc2-n2ccc(C(F)(F)F)n2)c1 [Example 320, 5-{2-[(3-chloro-4-fluorophenyl)amino]-4-[3-(trifluoromethyl)-1H-pyrazol-1-yl]pyrimidin-5-yl}pyridine-3-carboxylic acid] | 101% |
| O=C(O)/C=C/c1cccc(-c2cnc(Nc3ccc(F)c(Cl)c3)nc2-n2cc(Cl)cn2)c1 [Example 313, (2E)-3-(3-{2-[(3-chloro-4-fluorophenyl)amino]-4-(4-chloro-1H-pyrazol-1-yl)pyrimidin-5-yl}phenyl)prop-2-enoic acid] | 80.3% |
| Fc1ccc(Nc2ncc(-c3cncnc3)c(-n3nccn3)n2)cc1Cl [Example 86, N-(3-chloro-4-fluorophenyl)-4-(2H-1,2,3-triazol-2-yl)-5,5′-bipyrimidin-2-amine] | 91.1% |
| Fc1ccc(Nc2ncc(-c3cncnc3)c(NCC3CCCO3)n2)cc1Cl (centres unmarked) [Example 51, N-(3-chloro-4-fluorophenyl)-N′-(oxolan-2-ylmethyl)-5-pyrimidin-5-ylpyrimidine-2,4-diamine] | 88.8% |
| O=C(O)/C=C/c1cccc(-c2cnc(Nc3ccc(F)c(Cl)c3)nc2-n2cnc(C(F)(F)F)c2)c1 [Example 332, (2E)-3-(3-{2-[(3-chloro-4-fluorophenyl)amino]-4-[4-(trifluoromethyl)-1H-imidazol-1-yl]pyrimidin-5-yl}phenyl)prop-2-enoic acid] | 62.1% |
| O=C(O)/C=C/c1cccc(-c2cnc(Nc3ccc(F)c(Cl)c3)nc2-n2nnc3ccccc32)c1 [Example 325, (2E)-3-(3-{4-(1H-benzotriazol-1-yl)-2-[(3-chloro-4-fluorophenyl)amino]pyrimidin-5-yl}phenyl) prop-2-enoic acid] | 102% |
| CN(C)CCCNc1nc(Nc2ccc(F)c(Cl)c2)ncc1-c1ccc(C(=O)NCc2ccccc2)s1 [Example 368, N-benzyl-5-(2-(3-chloro-4-fluorophenylamino)-4-(3-(dimethylamino)propylamino)pyrimidin-5-yl) thiophene-2-carboxamide] | 105% |
| Cn1cc(-c2cnc(Nc3ccc(F)c(Cl)c3)nc2-n2ccc(C(F)(F)F)n2)cc(C(=O)O)c1=O [Example 1087, 5-(2-(3-Chloro-4-fluorophenylamino)-4-(3-(trifluoromethyl)-1H-pyrazol-1-yl)pyrimidin-5-yl)-1-methyl-2-oxo-1,2-dihydropyridine-3-carboxylic acid] | 100% |
